According to article PMC10055976, “Selection and evolution of disulfide-rich peptides via cellular protein quality control” (Chemical Science, 2023):
Where a SMILES comes first, the peptide text is derived from it. Bridges are numbered along the chain shown (N, C = ends).

What was measured:
[1] = Oxidative folding of peptides (HPLC); format: physicochemical; conditions: drp1 and drp4: 10 μM, 100 mM phosphate pH 7.4, 0.2 mM GSSG, drp2, drp3, k-1, k-2: 10 μM, same buffer with 6 M Gu·HCl and 0.2 mM GSSG, overnight, 37 °C
Description: (§1) We then deep-sequenced the DRPs enriched in P9, and a total of ∼1404 different sequences with the expected cysteine patterns were obtained (3 different scaffolds: 256, 742 and 406, respectively; dataset S3 and Fig. 4a). Sequences with stop codon(s) are very rare compared to that found in the previous selection (dataset S4), further confirming the success of the second-generation PQC-select. […] To chemically examine the foldability of the selected DRPs, four sequences were randomly selected for synthesis and oxidation. All of them can be specifically oxidized to a major product as determined using HPLC (Fig. 4b and S7 ^†). […] The disulfide pairing of drp1 was clearly shown by the ^1H–^1H NOESY spectra (Fig. S10 ^†).
Fig. 4 Identification and application of new DRPs selected from the second-generation PQC-select. (a) Top 5 enriched sequences for the three different scaffolds obtained from the second-generation PQC-select, scaffold M-2 (top), scaffold M-6 (middle) and scaffold M-9 (bottom). (b) HPLC chromatograms showing the oxidation of drp1, drp2, drp3 and drp4 in phosphate buffers (pH 7.4, 100 mM) containing 0.2 mM GSSG or 6 M Gu·HCl and 0.2 mM GSSG. […]
Reduced peptides (drp1 and 4, 10 μM) was dissolved in 100 mM phosphate buffer (pH 7.4) containing 0.2 mM GSSG. […] After that, oxidative folding of all the peptides was further analysed using HPLC and mass spectrometry . […]

[2] = biological target: T1, Keap1 kelch domain protein (Residues 321-609) (Homo sapiens, UniProt Q14145); assay: Surface plasmon resonance (SPR) assay of oxidized peptides; format: binding; conditions: for Binding affinity to Keap1 (in words): major oxidized product, SPR, preliminary; for Binding affinity to Keap1 (in words) / SPR sensorgrams: binding of Keap1 (in words): 25 °C, pH 7.4; for SPR sensorgrams: binding of Keap1 (in words): oxidized peptide, HPLC purity >95%
T1 construct: Keap1 kelch domain protein (Residues 321-609, Homo Sapiens); made in house
T1 sequence (Q14145 321-609): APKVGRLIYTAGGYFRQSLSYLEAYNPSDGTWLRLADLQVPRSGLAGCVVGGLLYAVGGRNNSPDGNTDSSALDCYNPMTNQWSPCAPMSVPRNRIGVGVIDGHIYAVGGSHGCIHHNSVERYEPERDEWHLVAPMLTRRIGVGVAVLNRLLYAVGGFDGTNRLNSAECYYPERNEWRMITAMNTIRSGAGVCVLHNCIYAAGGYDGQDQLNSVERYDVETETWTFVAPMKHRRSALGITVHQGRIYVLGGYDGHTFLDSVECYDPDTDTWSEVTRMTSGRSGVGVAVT

[3] = Solution NMR structure and disulfide pairing of drp1; format: physicochemical; conditions: oxidized drp1, ~1 mM, 80% perdeuterated acetonitrile / 20% H2O, 302 K
Description: as §1, with “S10 ^†). […]” for “S10 ^†).”
without target protein were then added to half of the blocked phage respectively and incubated for 30 min on a rotating wheel. […]
Reduced peptides (drp1 and 4, 10 μM) was dissolved in 100 mM phosphate buffer (pH 7.4) containing 0.2 mM GSSG. […] After that, oxidative folding of all the peptides was further analysed using HPLC and mass spectrometry .
Drp1 were dissolved in 80% perdeuterated acetonitrile and 20% H2O at a final concentration of about 1 mM . […] Two dimensional (2D) 1H, 15N/13C HSQC spectra were recorded to obtain chemical shifts of heavy atoms […]
in backbone and side-chains. […] The NMR data were processed using NMRPipe/NMRDraw and analyzed using NMRFAM-SPARKY5. […]

Row | Compound | Oxidative folding outcome (in words) [1] | Binding affinity to Keap1 (in words) [2] | SPR sensorgrams: binding of Keap1 (in words) ([2]; 50-3200 nM) | Kd ([2]; oxidized product (major), Biacore T200, 25 °C, biotinylated Keap1 on CAP chip, 10 mM phosphate pH 7.4, 50 μM EDTA, 0.05% Tween 20, 50-3200 nM, multiple cycle kinetics, 1:1 binding model, read-out: KD (equilibrium dissociation constant, SPR)) [nM] | kon ([2]; oxidized product, Biacore T200, 25 °C, 10 mM phosphate pH 7.4, 50 μM EDTA, 0.05% Tween 20, multiple cycle kinetics, 1:1 binding model, local fit, read-out: ka (association rate constant)) [M⁻¹ s⁻¹] | koff ([2]; oxidized product, Biacore T200, 25 °C, 10 mM phosphate pH 7.4, 50 μM EDTA, 0.05% Tween 20, multiple cycle kinetics, 1:1 binding model, local fit, read-out: kd (dissociation rate constant)) [s⁻¹] | Folding in solution by 1H–1H TOCSY (in words) [3] | 3D structure and disulfide pairing by NMR (in words) ([3]; PDB 8GUC, 15 lowest-energy structures)
1 | CC[C@H](C)[C@@H]1NC(=O)[C@@H]2CCCN2C(=O)[C@H](CCCNC(=N)N)NC(=O)[C@H](CCCNC(=N)N)NC(=O)[C@H]([C@@H](C)O)NC(=O)CNC(=O)[C@H](CCC(N)=O)NC(=O)[C@@H]2CSSC[C@H](NC(=O)[C@H](CCSC)NC(=O)[C@H](C)NC(=O)[C@H](CCCNC(=N)N)NC1=O)C(=O)N[C@@H](CC(N)=O)C(=O)N[C@@H](CC(=O)O)C(=O)N[C@@H](CO)C(=O)N[C@@H](C(C)C)C(=O)N1CCC[C@H]1C(=O)N[C@H]1CSSC[C@H](NC(=O)[C@@H](N)Cc3c[nH]c4ccccc34)C(=O)N3CCC[C@H]3C(=O)N3CCC[C@H]3C(=O)N[C@@H](CSSC[C@@H](C(N)=O)NC(=O)[C@@H]3CCCN3C(=O)[C@@H]3CCCN3C1=O)C(=O)N[C@@H](CCCNC(=N)N)C(=O)N[C@@H](Cc1ccccc1)C(=O)N[C@@H]([C@@H](C)O)C(=O)N[C@@H](CC(C)C)C(=O)N[C@@H](CO)C(=O)N[C@@H](CCC(=O)O)C(=O)N[C@@H](CCC(=O)O)C(=O)N[C@@H]([C@@H](C)O)C(=O)NCC(=O)N[C@@H](CCC(=O)O)C(=O)N2 [k-1] (H-WCPPCRFTLSEETGECQGTRRPIRAMCNDSVPCPPC-NH2; disulfide 2-33, 5-36, 16-27 (inferred)) | can be oxidized to a major product | submicromolar range | in a concentration-dependent manner | 349 | 54800 | 0.0191 |  | 
2 | H-GCPPCRFTLSPWVSPCSNPHWPIRAMCNDSVPCPPC-NH2 (also: bicyclic or more (positions not given here)) [drp1, CPPC disulfide-rich peptide selected by PQC-select; PDB 8GUC] |  |  |  |  |  |  | well-folded in solution | irregular but rigid loops and a short α-helix constrained through three disulfide bonds with the two CPPC motifs paired parallelly
3 | H-WCPPCRFTLSPETGECQGTKRPIRAMCNDSVPCPPC-NH2 (also: bicyclic or more (positions not given here)) [k-2] | can be oxidized to a major product | submicromolar range | in a concentration-dependent manner |  |  |  |  | 
